Tests used:
Assay type in all cases: in vivo
Design in all cases: key: 5=total damage to plant; 0=no damage to plant
Setaria faberi (SETFA) [1] = experiment: Pre-emergence herbicidal activity, glasshouse pot test; settings: Rate 1000 g/ha; sprayed one day after sowing; evaluated after 13 days
Method: (§1) Seeds of a variety of test species were sown in standard soil in pots: Triticum aestivium (TRZAW), Avena fatua (AVEFA), Alopecurus myosuroides (ALOMY), Echinochloa crus-galli (ECHCG), Lolium perenne (LOLPE), and Setaria faberi (SETFA). After cultivation for one day (pre-emergence) under controlled conditions in a glasshouse (at 24/16° C., day/night; 14 hours light; 65% humidity), the plants were sprayed with an aqueous spray solution derived from the formulation of the technical active ingredient in acetone/water (50:50) solution containing 0.5% Tween 20 (polyoxyethelyene sorbitan monolaurate, CAS RN 9005-64-5). The test plants were then grown in a glasshouse under controlled conditions (at 24/16° C., day/night; 14 hours light; 65% humidity) and watered twice daily. After 13 days, the test was evaluated (5=total damage to plant; 0=no damage to plant).

Lolium perenne (LOLPE) [2] = experiment: as above; settings: Rate 1000 g/ha; sprayed one day after sowing; evaluated after 13 days
Method: as §1

[3] = system: Alopecurus myosuroides (ALOMY); experiment: as above; settings: Rate 1000 g/ha; sprayed one day after sowing; evaluated after 13 days
Method: as §1

[4] = system: Echinochloa crus-galli (ECHCG); experiment: as above; settings: Rate 1000 g/ha; sprayed one day after sowing; evaluated after 13 days
Method: as §1

Avena fatua (AVEFA) [5] = experiment: as above; settings: Rate 1000 g/ha; sprayed one day after sowing; evaluated after 13 days
Method: as §1

[6] = system: Triticum aestivium (TRZAW); experiment: as above; settings: Rate 1000 g/ha; sprayed one day after sowing; evaluated after 13 days
Method: as §1

Setaria faberi (SETFA) [7] = experiment: Post-emergence herbicidal activity, glasshouse pot test; settings: Rate 1000 g/ha; sprayed after 8 days cultivation; evaluated after 13 days
Method: (§2) Seeds of a variety of test species were sown in standard soil in pots: Triticum aestivium (TRZAW), Avena fatua (AVEFA), Alopecurus myosuroides (ALOMY), Echinochloa crus-galli (ECHCG), Lolium perenne (LOLPE), and Setaria faberi (SETFA). After 8 days cultivation (post-emergence) under controlled conditions in a glasshouse (at 24/16° C., day/night; 14 hours light; 65% humidity), the plants were sprayed with an aqueous spray solution derived from the formulation of the technical active ingredient in acetone/water (50:50) solution containing 0.5% Tween 20 (polyoxyethelyene sorbitan monolaurate, CAS RN 9005-64-5). The test plants were then grown in a glasshouse under controlled conditions (at 24/16° C., day/night; 14 hours light; 65% humidity) and watered twice daily. After 13 days, the test was evaluated (5=total damage to plant; 0=no damage to plant).

Lolium perenne (LOLPE) [8] = experiment: as above; settings: Rate 1000 g/ha; sprayed after 8 days cultivation; evaluated after 13 days
Method: as §2

[9] = system: Alopecurus myosuroides (ALOMY); experiment: as above; settings: Rate 1000 g/ha; sprayed after 8 days cultivation; evaluated after 13 days
Method: as §2

[10] = system: Echinochloa crus-galli (ECHCG); experiment: as above; settings: Rate 1000 g/ha; sprayed after 8 days cultivation; evaluated after 13 days
Method: as §2

Avena fatua (AVEFA) [11] = experiment: as above; settings: Rate 1000 g/ha; sprayed after 8 days cultivation; evaluated after 13 days
Method: as §2

[12] = system: Triticum aestivium (TRZAW); experiment: as above; settings: Rate 1000 g/ha; sprayed after 8 days cultivation; evaluated after 13 days
Method: as §2

| SMILES | Control of weed species after pre-emergence application, SETFA (damage score 0-5) (Setaria faberi (SETFA) [1]) | Control of weed species after pre-emergence application, LOLPE (damage score 0-5) (Lolium perenne (LOLPE) [2]) | Control of weed species after pre-emergence application, ALOMY (damage score 0-5) [3] | Control of weed species after pre-emergence application, ECHCG (damage score 0-5) [4] | Control of weed species after pre-emergence application, AVEFA (damage score 0-5) (Avena fatua (AVEFA) [5]) | Control of weed species after pre-emergence application, TRAZW (damage score 0-5) [6] | Control of weed species after post-emergence application, SETFA (damage score 0-5) (Setaria faberi (SETFA) [7]) | Control of weed species after post-emergence application, LOLPE (damage score 0-5) (Lolium perenne (LOLPE) [8]) | Control of weed species after post-emergence application, ALOMY (damage score 0-5) [9] | Control of weed species after post-emergence application, ECHCG (damage score 0-5) [10] | Control of weed species after post-emergence application, AVEFA (damage score 0-5) (Avena fatua (AVEFA) [11]) | Control of weed species after post-emergence application, TRAZW (damage score 0-5) [12] |
| --- | --- | --- | --- | --- | --- | --- | --- | --- | --- | --- | --- | --- |
| COC(=O)c1nc(-c2cncc(F)c2)cnc1N(C(=O)OC(C)(C)C)C(=O)OC(C)(C)C [Compound H26] | 5 | 0 | 0 | 0 | 0 | 0 | 5 | 0 | 0 | 3 | 1 | 1 |
| CC(C)=Cc1nc(-c2cncc(F)c2)cnc1N(C(=O)OC(C)(C)C)C(=O)OC(C)(C)C [Compound H14] | 3 | 2 | 0 | 2 | 0 | 0 | 4 | 1 | 0 | 2 | 1 | 0 |
| CC(C)(C)OC(=O)Nc1ncc(-c2cncc(F)c2)nc1C(F)F [Compound H28] | 4 | 0 | 3 | 2 | 2 | 0 | 5 | 3 | 0 | 5 | 4 | 0 |
| Cc1nc(-c2cncc(F)c2)cnc1NC(=O)OC(C)(C)C [Compound H17] | 4 | 3 | 0 | 4 | 2 | 0 |  | 3 | 2 | 4 | 3 | 0 |
| CCc1nc(-c2cncc(F)c2)cnc1N(C(=O)OC(C)(C)C)C(=O)OC(C)(C)C [Compound H21] | 5 | 5 | 0 | 1 | 2 | 0 | 5 | 4 | 1 | 4 | 4 | 1 |
| C#Cc1nc(-c2cncc(F)c2)cnc1N(C(=O)OC(C)(C)C)C(=O)OC(C)(C)C [Compound H29] | 0 | 0 | 0 | 0 | 0 | 0 | 1 | 1 | 0 | 1 | 0 | 1 |
| CC(C)(C)OC(=O)N(C(=O)OC(C)(C)C)c1ncc(-c2cncc(F)c2)nc1C(F)(F)F [Compound H5] | 5 | 1 | 0 | 5 | 2 | 0 | 5 | 2 | 0 | 5 | 3 | 1 |
| CC(C)(C)OC(=O)Nc1ncc(-c2cncc(F)c2)nc1CO [Compound H22] | 0 | 0 | 0 | 0 | 0 | 0 | 2 | 1 | 0 | 1 | 1 | 0 |

Source: patent US11434221B2, “Pyrazine-4-carbamate or -urea derivatives as herbicides” (Syngenta Participations AG, priority 2017, dated 2022)
